{
  "source": "PubChem BioAssay (NCI)",
  "test_in_all_cases": "NCI-60 cell line screen, 48 h",
  "key": {"SNB-19 CNS": {"tested_on": "SNB-19 CNS"}, "HCT-15 colon": {"tested_on": "HCT-15 colon"}, "COLO 205 colon": {"tested_on": "COLO 205 colon"}, "MALME-3M melanoma": {"tested_on": "MALME-3M melanoma"}, "MDA-MB-231 breast": {"tested_on": "MDA-MB-231 breast"}, "HCT-116 colon": {"tested_on": "HCT-116 colon"}, "786-0 renal": {"tested_on": "786-0 renal"}, "ACHN renal": {"tested_on": "ACHN renal"}, "SW-620 colon": {"tested_on": "SW-620 colon"}, "HCC-2998 colon": {"tested_on": "HCC-2998 colon"}, "IGROV1 ovarian": {"tested_on": "IGROV1 ovarian"}, "RXF 393 renal": {"tested_on": "RXF 393 renal"}, "HS 578T breast": {"tested_on": "HS 578T breast"}, "A498 renal": {"tested_on": "A498 renal"}, "MDA-MB-435": {"tested_on": "MDA-MB-435"}, "SR leukemia": {"tested_on": "SR leukemia"}, "M14 melanoma": {"tested_on": "M14 melanoma"}, "NCI/ADR-RES ovarian": {"tested_on": "NCI/ADR-RES ovarian"}, "SF-539 CNS": {"tested_on": "SF-539 CNS"}, "K-562 leukemia": {"tested_on": "K-562 leukemia"}, "DU-145 prostate": {"tested_on": "DU-145 prostate"}, "NCI-H460 lung": {"tested_on": "NCI-H460 lung"}, "NCI-H23 lung": {"tested_on": "NCI-H23 lung"}, "HL-60(TB) leukemia": {"tested_on": "HL-60(TB) leukemia"}, "SF-295 CNS": {"tested_on": "SF-295 CNS"}, "CCRF-CEM leukemia": {"tested_on": "CCRF-CEM leukemia"}, "A549 NSCLC": {"tested_on": "A549 NSCLC"}, "HOP-92 NSCLC": {"tested_on": "HOP-92 NSCLC"}, "UACC-62 melanoma": {"tested_on": "UACC-62 melanoma"}, "T-47D breast": {"tested_on": "T-47D breast"}, "SK-MEL-5 melanoma": {"tested_on": "SK-MEL-5 melanoma"}, "SK-MEL-28 melanoma": {"tested_on": "SK-MEL-28 melanoma"}, "KM12 colon": {"tested_on": "KM12 colon"}, "SN12C renal": {"tested_on": "SN12C renal"}, "NCI-H226 lung": {"tested_on": "NCI-H226 lung"}, "OVCAR-4 ovarian": {"tested_on": "OVCAR-4 ovarian"}, "U251 CNS": {"tested_on": "U251 CNS"}, "UO-31 renal": {"tested_on": "UO-31 renal"}, "OVCAR-8 ovarian": {"tested_on": "OVCAR-8 ovarian"}, "MCF7 breast": {"tested_on": "MCF7 breast"}, "UACC-257 melanoma": {"tested_on": "UACC-257 melanoma"}, "SNB-75 CNS": {"tested_on": "SNB-75 CNS"}, "RPMI-8226 leukemia": {"tested_on": "RPMI-8226 leukemia"}, "OVCAR-5 ovarian": {"tested_on": "OVCAR-5 ovarian"}, "HT29 colon": {"tested_on": "HT29 colon"}, "SF-268 CNS": {"tested_on": "SF-268 CNS"}, "TK-10 renal": {"tested_on": "TK-10 renal"}, "MOLT-4 leukemia": {"tested_on": "MOLT-4 leukemia"}, "HOP-62 NSCLC": {"tested_on": "HOP-62 NSCLC"}},
  "note": "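Growth conditions: 96-well plates. Treatment: test compound, 48 hours, 5 concentrations. Analysis: linear interpolation between bracketing concentrations; unreached endpoints set to highest concentration. TGI is the concentration that stops growth completely.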",
  "data": [
    {"compound": "CC(=O)CCC(=O)CC(O)(C(F)(F)F)C(F)(F)F", "values": [
      {"measurement": "TGI", "setting": "SNB-19 CNS", "result": 30, "unit": "µM"},
      {"measurement": "TGI", "setting": "HCT-15 colon", "result": 35.4, "unit": "µM"},
      {"measurement": "TGI", "setting": "COLO 205 colon", "result": 34.4, "unit": "µM"},
      {"measurement": "TGI", "setting": "MALME-3M melanoma", "result": 32.9, "unit": "µM"},
      {"measurement": "TGI", "setting": "MDA-MB-231 breast", "result": 35, "unit": "µM"},
      {"measurement": "TGI", "setting": "HCT-116 colon", "result": 31.3, "unit": "µM"},
      {"measurement": "TGI", "setting": "786-0 renal", "result": 30.2, "unit": "µM"},
      {"measurement": "TGI", "setting": "ACHN renal", "result": 42.6, "unit": "µM"},
      {"measurement": "TGI", "setting": "SW-620 colon", "result": 42.8, "unit": "µM"},
      {"measurement": "TGI", "setting": "HCC-2998 colon", "result": 33.6, "unit": "µM"},
      {"measurement": "TGI", "setting": "IGROV1 ovarian", "result": 31.1, "unit": "µM"},
      {"measurement": "TGI", "setting": "RXF 393 renal", "result": 34.5, "unit": "µM"},
      {"measurement": "TGI", "setting": "HS 578T breast", "result": 38.5, "unit": "µM"},
      {"measurement": "TGI", "setting": "A498 renal", "result": 17.6, "unit": "µM"},
      {"measurement": "TGI", "setting": "MDA-MB-435", "result": 34.6, "unit": "µM"},
      {"measurement": "TGI", "setting": "SR leukemia", "result": 32, "unit": "µM"},
      {"measurement": "TGI", "setting": "M14 melanoma", "result": 34.9, "unit": "µM"},
      {"measurement": "TGI", "setting": "NCI/ADR-RES ovarian", "result": 58.7, "unit": "µM"},
      {"measurement": "TGI", "setting": "SF-539 CNS", "result": 31.9, "unit": "µM"},
      {"measurement": "TGI", "setting": "K-562 leukemia", "result": 33.4, "unit": "µM"},
      {"measurement": "TGI", "setting": "DU-145 prostate", "result": 37.8, "unit": "µM"},
      {"measurement": "TGI", "setting": "NCI-H460 lung", "result": 38.6, "unit": "µM"},
      {"measurement": "TGI", "setting": "NCI-H23 lung", "result": 43.2, "unit": "µM"},
      {"measurement": "TGI", "setting": "HL-60(TB) leukemia", "result": 38.1, "unit": "µM"},
      {"measurement": "TGI", "setting": "SF-295 CNS", "result": 27.1, "unit": "µM"},
      {"measurement": "TGI", "setting": "CCRF-CEM leukemia", "result": 51, "unit": "µM"},
      {"measurement": "TGI", "setting": "A549 NSCLC", "result": 41.9, "unit": "µM"},
      {"measurement": "TGI", "setting": "HOP-92 NSCLC", "result": 26.7, "unit": "µM"},
      {"measurement": "TGI", "setting": "UACC-62 melanoma", "result": 32, "unit": "µM"},
      {"measurement": "TGI", "setting": "T-47D breast", "result": 40, "unit": "µM"},
      {"measurement": "TGI", "setting": "SK-MEL-5 melanoma", "result": 33.2, "unit": "µM"},
      {"measurement": "TGI", "setting": "SK-MEL-28 melanoma", "result": 39.6, "unit": "µM"},
      {"measurement": "TGI", "setting": "KM12 colon", "result": 31.1, "unit": "µM"},
      {"measurement": "TGI", "setting": "SN12C renal", "result": 36.5, "unit": "µM"},
      {"measurement": "TGI", "setting": "NCI-H226 lung", "result": 24.7, "unit": "µM"},
      {"measurement": "TGI", "setting": "OVCAR-4 ovarian", "result": 37, "unit": "µM"},
      {"measurement": "TGI", "setting": "U251 CNS", "result": 33.2, "unit": "µM"},
      {"measurement": "TGI", "setting": "UO-31 renal", "result": 27.8, "unit": "µM"},
      {"measurement": "TGI", "setting": "OVCAR-8 ovarian", "result": 37.9, "unit": "µM"},
      {"measurement": "TGI", "setting": "MCF7 breast", "result": 37.1, "unit": "µM"},
      {"measurement": "TGI", "setting": "UACC-257 melanoma", "result": 33.7, "unit": "µM"},
      {"measurement": "TGI", "setting": "SNB-75 CNS", "result": 65.2, "unit": "µM"},
      {"measurement": "TGI", "setting": "RPMI-8226 leukemia", "result": 49.8, "unit": "µM"},
      {"measurement": "TGI", "setting": "OVCAR-5 ovarian", "result": 29.9, "unit": "µM"},
      {"measurement": "TGI", "setting": "HT29 colon", "result": 34.7, "unit": "µM"},
      {"measurement": "TGI", "setting": "SF-268 CNS", "result": 44.6, "unit": "µM"},
      {"measurement": "TGI", "setting": "TK-10 renal", "result": 44.1, "unit": "µM"},
      {"measurement": "TGI", "setting": "MOLT-4 leukemia", "result": 36.6, "unit": "µM"},
      {"measurement": "TGI", "setting": "HOP-62 NSCLC", "result": 33.6, "unit": "µM"}
    ]}
  ]
}
